Ten compounds from ChEMBL document CHEMBL1149936, “Discovery of selective dopamine D3 ligands: II. 2-[4-[3-(4-aryl-1-piperazinyl)propoxy]phenyl]benzimidazole partial agonists” (Bioorg Med Chem Lett, 1995) can be followed below.

The target of one assay is D(3) dopamine receptor (Homo sapiens, UniProt P35462). The assay can be described thus: Binding affinity towards cloned human Dopamine D3 receptor in CHO cells using [3H]spiperone as radioligand. In kind it is cell-based.
In a further assay the target is D(2) dopamine receptor (Homo sapiens, UniProt P14416). The assay can be described thus: Binding affinity towards cloned human Dopamine D2 receptor in CHO cells using [3H]spiperone as radioligand. In kind it is cell-based.
The next assay has as its system Mus musculus. Kind of assay: Inhibitory effect on exploratory locomotor activity in mice after ip administration. In kind it is functional.
The test system of assay [1] is Rattus norvegicus. The assay can be described thus: Inhibitory effect on exploratory locomotor activity in rats at a dose of 30 mg/kg after oral administration; no effect. In kind it is functional, organism-based. More on the design: dose 30 mg/kg.
Assay [2] deals with Rattus norvegicus. Kind of assay: Inhibitory effect on exploratory locomotor activity in rats after ip administration. In kind it is functional.

pKi: −log10 of the molar value. Activity calls are given as the source filed them. The rule behind the calls is not given here. Some results are limits rather than exact numbers.

Sequence of D(2) dopamine receptor (P14416 whole entry): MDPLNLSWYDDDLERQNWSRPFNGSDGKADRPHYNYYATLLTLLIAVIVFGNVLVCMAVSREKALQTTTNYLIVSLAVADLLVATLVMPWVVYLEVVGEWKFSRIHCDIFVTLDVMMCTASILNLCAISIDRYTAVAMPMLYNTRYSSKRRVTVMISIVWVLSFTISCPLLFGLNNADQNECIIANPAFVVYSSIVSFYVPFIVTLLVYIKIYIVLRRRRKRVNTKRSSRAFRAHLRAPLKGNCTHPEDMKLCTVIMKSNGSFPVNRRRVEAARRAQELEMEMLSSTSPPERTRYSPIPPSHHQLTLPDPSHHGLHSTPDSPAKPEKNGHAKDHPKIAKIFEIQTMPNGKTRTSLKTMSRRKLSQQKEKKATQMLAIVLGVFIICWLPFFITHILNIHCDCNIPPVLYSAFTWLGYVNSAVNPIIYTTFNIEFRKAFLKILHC
Sequence of D(3) dopamine receptor (P35462 whole entry): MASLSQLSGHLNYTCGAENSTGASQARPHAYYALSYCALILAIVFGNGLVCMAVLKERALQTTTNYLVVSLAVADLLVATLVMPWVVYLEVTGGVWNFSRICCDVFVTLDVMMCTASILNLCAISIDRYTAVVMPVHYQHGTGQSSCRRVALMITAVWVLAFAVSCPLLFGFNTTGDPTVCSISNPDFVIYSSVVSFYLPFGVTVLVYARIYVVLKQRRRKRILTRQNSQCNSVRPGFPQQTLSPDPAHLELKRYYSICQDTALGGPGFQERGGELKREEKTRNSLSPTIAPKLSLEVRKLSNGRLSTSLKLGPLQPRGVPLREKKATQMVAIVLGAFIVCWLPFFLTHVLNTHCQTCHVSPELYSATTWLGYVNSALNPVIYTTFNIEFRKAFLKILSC

As to `COc1ccc(N2CCN(CCCOc3ccc(-c4nc5ccccc5[nH]4)cc3)CC2)cc1`, the negative-log Ki (pKi) was 6.89 at D(3) dopamine receptor and 6.53 at D(2) dopamine receptor.

Consider `c1ccc(N2CCN(CCCOc3ccc(-c4nc5ccccc5[nH]4)cc3)CC2)nc1`, for which the pKi at D(2) dopamine receptor is 7.15.

Turning to `COc1ccccc1N1CCN(CCCOc2ccc(-c3nc4ccccc4[nH]3)cc2)CC1`, the pKi at D(3) dopamine receptor is 8.77; on D(2) dopamine receptor it was 8.06.

Take `Clc1ccccc1N1CCN(CCCOc2ccc(-c3nc4ccccc4[nH]3)cc2)CC1`: the pKi on D(3) dopamine receptor is 7.74; at D(2) dopamine receptor, 6.90.

Consider `c1ccc(N2CCN(CCCOc3ccc(-c4nc5ccccc5[nH]4)cc3)CC2)cc1`, for which the pKi is 8.82 at D(3) dopamine receptor and 6.39 on D(2) dopamine receptor. Also, the ED50 in the assay with Mus musculus was found to be 2.3 mg/kg; in the assay with Rattus norvegicus [2], 7.1 mg/kg. Moreover, the ED50 entry in the assay with Rattus norvegicus [1] is “inactive”.

In the case of `Clc1cccc(N2CCN(CCCOc3ccc(-c4nc5ccccc5[nH]4)cc3)CC2)c1`, the pKi at D(3) dopamine receptor was 6.81; at D(2) dopamine receptor, 5.85.

For `Clc1ccc(N2CCN(CCCOc3ccc(-c4nc5ccccc5[nH]4)cc3)CC2)cc1`, the pKi on D(3) dopamine receptor was 7.57; on D(2) dopamine receptor it was 6.06.

Turning to `c1cnc(N2CCN(CCCOc3ccc(-c4nc5ccccc5[nH]4)cc3)CC2)nc1`, the pKi at D(2) dopamine receptor was 6.57.

Compound `CCCSc1ccccc1N1CCN(CCCOc2ccc(-c3nc4ccccc4[nH]3)cc2)CC1` had a pKi at D(2) dopamine receptor of 8.10.

Turning to `CN1CCN(CCCOc2ccc(-c3nc4ccccc4[nH]3)cc2)CC1`, the pKi is 5.70 at D(3) dopamine receptor and below 5.48 on D(2) dopamine receptor.
